Test results from patent publication US20240174674A1, “NITROGEN-CONTAINING POLYCYCLIC FUSED RING COMPOUND, PHARMACEUTICAL COMPOSITION THEREOF, PREPARATION METHOD THEREFOR, AND USE THEREOF” (APPLIED PHARMACEUTICAL SCIENCE, INC., priority 2021, published 2024).

Assays:
RET V804M = RET V804M (Homo sapiens (Human), UniProt P07949, V804M); experiment: HTRF KinEASE-TK kinase activity test, RET V804M; assay type: biochemical; details: for IC50: HTRF kinase assay; for inhibitory activity against RET V804M compared to that of cabozantinib: versus cabozantinib
RET V804M, sequence (P07949 29-1114 V804M): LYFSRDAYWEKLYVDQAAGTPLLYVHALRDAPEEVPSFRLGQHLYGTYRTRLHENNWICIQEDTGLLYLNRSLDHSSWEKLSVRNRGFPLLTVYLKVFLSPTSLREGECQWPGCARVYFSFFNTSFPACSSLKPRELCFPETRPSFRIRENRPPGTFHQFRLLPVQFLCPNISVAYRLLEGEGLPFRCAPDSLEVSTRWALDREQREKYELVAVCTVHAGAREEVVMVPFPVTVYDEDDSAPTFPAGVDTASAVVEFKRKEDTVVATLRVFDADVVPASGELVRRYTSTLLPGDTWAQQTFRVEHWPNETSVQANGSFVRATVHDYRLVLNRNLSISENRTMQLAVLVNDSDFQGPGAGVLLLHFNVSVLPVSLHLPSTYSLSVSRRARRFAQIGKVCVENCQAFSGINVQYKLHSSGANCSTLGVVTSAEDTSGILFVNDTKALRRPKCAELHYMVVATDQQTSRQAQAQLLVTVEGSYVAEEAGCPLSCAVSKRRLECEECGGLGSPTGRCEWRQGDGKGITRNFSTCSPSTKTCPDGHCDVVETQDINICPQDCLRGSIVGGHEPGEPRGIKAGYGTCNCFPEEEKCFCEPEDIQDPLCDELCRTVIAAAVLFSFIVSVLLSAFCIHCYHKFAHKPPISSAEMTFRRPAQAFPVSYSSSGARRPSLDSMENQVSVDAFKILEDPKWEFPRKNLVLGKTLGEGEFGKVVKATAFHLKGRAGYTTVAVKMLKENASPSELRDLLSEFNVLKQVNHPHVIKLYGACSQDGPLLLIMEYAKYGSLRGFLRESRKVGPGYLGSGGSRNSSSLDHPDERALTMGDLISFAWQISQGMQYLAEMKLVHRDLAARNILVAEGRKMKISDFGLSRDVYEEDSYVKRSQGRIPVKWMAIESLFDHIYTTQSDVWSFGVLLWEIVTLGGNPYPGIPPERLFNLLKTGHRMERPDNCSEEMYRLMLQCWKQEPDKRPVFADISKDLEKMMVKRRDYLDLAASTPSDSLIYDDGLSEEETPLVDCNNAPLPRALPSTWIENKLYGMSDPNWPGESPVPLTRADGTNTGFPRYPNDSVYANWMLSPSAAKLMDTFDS

RET-wt = RET-wt (Homo sapiens (Human), UniProt P07949); experiment: HTRF KinEASE-TK kinase activity test, RET-wt; assay type: biochemical; details: for IC50: HTRF kinase assay; for inhibitory activity against RET-wt compared to that of cabozantinib: versus cabozantinib
RET-wt, sequence (P07949 29-1114): as the sequence (P07949 29-1114 V804M) above, with M776V counted along it

RET G810R = RET G810R (Homo sapiens (Human), UniProt P07949, G810R); experiment: HTRF KinEASE-TK kinase activity test, RET G810R; details: for inhibitory activity against RET G810R relative to that of selpercatinib (LOXO-292): fold versus selpercatinib (LOXO-292); for IC50: read-out: RET G810R IC50, HTRF kinase assay
RET G810R, sequence (P07949 29-1114 G810R): as the sequence (P07949 29-1114 V804M) above, with M776V, G782R counted along it

IC50 (RET V804M) [nM] | inhibitory activity against RET V804M compared to that of cabozantinib (RET V804M) | IC50 (RET-wt) [nM] | inhibitory activity against RET-wt compared to that of cabozantinib (RET-wt) | inhibitory activity against RET G810R relative to that of selpercatinib (LOXO-292) (RET G810R) [times] | IC50 (RET G810R) [nM] | Compound
0.1 | significantly superior | 0.1 | significantly superior | ≥ 10 | 2.9 | CCOc1cc(-c2ccc(N3CCC(C)(NC(=O)c4ncccc4Cl)CC3)nc2)c2c3cn[nH]c3nn2c1 [Compound 3, 3-chloro-N-(1-(5-(6-ethoxy-1H-pyrazolo[3′,4′:3,4]pyrazolo[1,5-α]pyridin-4-yl)pyridin-2-yl)-4-methylpiperidin-4-yl)-2-picolinamide]
0.03 | significantly superior | 0.1 | significantly superior | ≥ 10 | 2.3 | CCOc1cc(-c2ccc(N3CCC(C)(NC(=O)c4ncc(F)cc4Cl)CC3)nc2)c2c3cn[nH]c3nn2c1 [Compound 4]
